Earlier results as cited in US20240180842A1, “COLON TARGETED DRUG DELIVERY” (Axial Therapeutics, Inc., priority 2022, published 2024).

Tested on: ASD individuals with high irritability (ABC-I≥18)
Details: phase 3 study, drug arms; placebo arm 34.7%

SMILES: O=C1CCc2ccc(OCCCCN3CCN(c4cccc(Cl)c4Cl)CC3)cc2N1 [aripiprazole]
- response rate (25% improvement in ABC-I scores and CGI-I≤2): 49-56%
